# Results as given in PubChem BioAssay (NCI).
# Several values for one entry are separate records, joined by “and”; a condition that tells them apart may be missing. Equal values may be shown once.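 96-well plates; 48 h exposure; 5 concentrations. Endpoints by linear interpolation between flanking doses. Not reached: highest tested concentration assigned. GI50: concentration for 50% inhibition of growth. TGI: total growth inhibition.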
# Assays:
# Assay in all cases: NCI-60 cell line screen, 48 h
# HCT-116 colon = test system: HCT-116 colon
# HS 578T breast = test system: HS 578T breast
# MDA-MB-231 breast = test system: MDA-MB-231 breast
# NCI/ADR-RES ovarian = test system: NCI/ADR-RES ovarian
# OVCAR-8 ovarian = test system: OVCAR-8 ovarian
# RPMI-8226 leukemia = test system: RPMI-8226 leukemia
# RXF 393 renal = test system: RXF 393 renal
# SNB-75 CNS = test system: SNB-75 CNS
# TK-10 renal = test system: TK-10 renal
# MALME-3M melanoma = test system: MALME-3M melanoma
Compound,GI50 (HCT-116 colon),TGI (HCT-116 colon),GI50 (HS 578T breast),TGI (HS 578T breast),GI50 (MDA-MB-231 breast),TGI (MDA-MB-231 breast),GI50 (NCI/ADR-RES ovarian),TGI (NCI/ADR-RES ovarian),GI50 (OVCAR-8 ovarian),TGI (OVCAR-8 ovarian),GI50 (RPMI-8226 leukemia),TGI (RPMI-8226 leukemia),GI50 (RXF 393 renal),TGI (RXF 393 renal),GI50 (SNB-75 CNS),TGI (SNB-75 CNS),GI50 (TK-10 renal),TGI (TK-10 renal),TGI (MALME-3M melanoma),GI50 (MALME-3M melanoma)
O=C1c2ccc3c4c(ccc(c24)C(=O)N1CCNCc1ccccc1)C(=O)N(CCNCc1ccccc1)C3=O,1.42 µM,2.89 µM,1.83 µM,5.27 µM,2.31 µM,6.61 µM,1.81 µM,4.94 µM,1.2 µM,4.26 µM,2 µM,5.12 µM,1.41 µM,4.21 µM,3.19 µM,43.1 µM,2.93 µM,> 100 µM,,
COc1cc(CC(=O)O)c([N+](=O)[O-])cc1OC,,> 100 µM,,,,,,,,> 100 µM,,> 100 µM,,> 100 µM,,> 100 µM,,> 100 µM,> 100 µM,
COc1ccc([C@@H]2OC(=O)C3C2C(=O)O[C@H]3c2ccc(OC)cc2)cc1 (stereo partly specified),,> 100 µM,,,,,,,,> 100 µM,,> 100 µM,,> 100 µM,,> 100 µM,,,,
[CH3][Hg]/[N]=C(/N)NC#N,14.4 µM,27.9 µM,,,,,,,3.63 µM,16.1 µM,2.62 µM,> 100 µM,1.4 µM,5.13 µM,12.1 µM,24.4 µM,3.35 µM,14.8 µM,4.94 µM,2.34 µM
O=C(/C=C/C=C/c1ccc2c(c1)OCO2)N/N=C\c1ccc(O)cc1O,2.02 µM,14.5 µM,2.29 µM,8.15 µM,3.49 µM,19.3 µM,1.29 µM,7.6 µM,2.67 µM,29.9 µM,,,1.74 µM,6.88 µM,1.89 µM,9.41 µM,2.95 µM,33 µM,10.5 µM,2.03 µM
Cc1cc(Cl)cc2c1NC(=O)C2(O)C(C(=O)c1ccccc1)c1ccccc1 (stereo unspecified),,79.3 µM,,,,,,,> 100 µM and 32.5 µM,> 100 µM,,64.5 µM and 42.4 µM,38 µM and 16.2 µM,86.1 µM and 31.7 µM,,83.2 µM and 60.7 µM,,> 100 µM,> 100 µM and 49.2 µM,91.5 µM and 22.7 µM
Cc1cc(C)c(/C=N/NS(=O)(=O)c2ccccc2)c(C)c1,,> 100 µM,,,,,,,,> 100 µM,,> 100 µM,,> 100 µM,,> 100 µM,,> 100 µM,> 100 µM,
COC(=O)C(C(=O)C(=O)Nc1ccccc1C)c1nc2ccc([N+](=O)[O-])cc2[nH]c1=O (stereo unspecified),,> 100 µM,,,,,,,,> 100 µM,,> 100 µM,,> 100 µM,,> 100 µM,,> 100 µM,> 100 µM,
COc1ccc(/C=C/C(=O)/C=C(O)/C=C/c2ccc(OC)c(OC)c2)cc1OC,1.83 µM,5.96 µM,3.68 µM,> 100 µM,6.19 µM,> 100 µM,3.86 µM,> 100 µM,35.5 µM,95.9 µM,0.559 µM,6.85 µM,,,16.5 µM,69 µM,4.03 µM,> 100 µM,> 100 µM,3.82 µM
Cc1c(C(=O)c2ccccc2)[n+](=O)c2cc(F)c(F)cc2n1[O-],,,2.08 µM,4.68 µM,1.46 µM,2.83 µM,1.76 µM,3.23 µM,2.02 µM,4.32 µM,,,,,,,1.36 µM,17.5 µM,7.76 µM,2.7 µM
NC(=O)c1csc(-c2ccc(CO)o2)n1,,> 100 µM,,,,> 100 µM,,> 100 µM,,> 100 µM,,> 100 µM,,> 100 µM,,,,> 100 µM,> 100 µM,
CN(C)CCCCNc1ccc(NCCCCN(C)C)c2c1C(=O)c1c(O)ccc(O)c1C2=O,1.51 µM,2.83 µM,,,1.47 µM,2.78 µM,1.62 µM,3.08 µM,1.55 µM,2.94 µM,2.54 µM,6.49 µM,1.75 µM,11.2 µM,12.8 µM,25.3 µM,13.3 µM,26.4 µM,33.5 µM,18.3 µM
CCc1ccccc1NC(=O)C(=O)C1C(=O)N(c2ccccc2)N=C1N (stereo unspecified),,> 100 µM,,,,,,,,> 100 µM,,> 100 µM,,> 100 µM,,> 100 µM,,> 100 µM,> 100 µM,
COC1C(=O)CCC2(CO2)C1(O)C1(C)OC1CC=C(C)C (stereo unspecified),,> 100 µM,,> 100 µM,,> 100 µM,,,,> 100 µM,,,,> 100 µM,,> 100 µM,,> 100 µM,,
CC(=O)Nc1ccc(C2=N/C(=C\c3ccc(Cl)cc3)C(=O)O2)cc1,,> 100 µM,,,,,,,,> 100 µM,,> 100 µM,,> 100 µM,,> 100 µM,,> 100 µM,> 100 µM,
CCCCCCCCCCCCCCCCCC[S+](C)CC (stereo unspecified),,,,,1.67 µM,3.83 µM,11.4 µM,37.2 µM,,,,,,,,,,,3.45 µM,1.38 µM
CC#CC#C/C(=C/C=CC(=O)OC)SC,,> 100 µM,,> 100 µM,,> 100 µM,,> 100 µM,,> 100 µM,,,,,,> 100 µM,,> 100 µM,> 100 µM,
CC1(C)C(CC(=O)O)CCCC1CC(=O)O (stereo unspecified),,> 100 µM,,> 100 µM,,> 100 µM,,> 100 µM,,> 100 µM,,> 100 µM,,> 100 µM,,,,> 100 µM,,
Cc1ccc(NC(=O)CC2SC(=Nc3ccc(Cl)cc3)NC2=O)cc1C (stereo unspecified),,32.9 µM,,,,,,,,32.8 µM,,21.2 µM,,32 µM,,33.2 µM,,31.1 µM,33.2 µM,
Cc1cc(C)nc(NS(=O)(=O)c2ccc(NC(=O)COC(=O)c3cccc4c(=O)c5ccccc5[nH]c34)cc2)n1,,55 µM,,,,,,,,> 100 µM,,> 100 µM,,74.5 µM,,73.5 µM,,> 100 µM,73 µM,
CCOC(=O)C(=O)C(C#N)c1ccc(Cl)cc1 (stereo unspecified),,> 100 µM,,,,,,,,> 100 µM,,> 100 µM,,> 100 µM,,> 100 µM,,> 100 µM,> 100 µM,
